# Read-outs that look alike come from different tables or passages of the source.
# Assays:
# GFP MDCK-II cells = assay: [3H]-mitoxantrone accumulation in GFP-transduced MDCK-II control cells; assay type: cell-based
# ABCG2 [1] = biological target: T1, ABCG2 (Homo sapiens, UniProt Q9UNQ0); assay: [3H]-mitoxantrone accumulation in ABCG2-transduced MDCK-II cells (BCRP MDCK-II)
# T1 sequence (Q9UNQ0 1-655): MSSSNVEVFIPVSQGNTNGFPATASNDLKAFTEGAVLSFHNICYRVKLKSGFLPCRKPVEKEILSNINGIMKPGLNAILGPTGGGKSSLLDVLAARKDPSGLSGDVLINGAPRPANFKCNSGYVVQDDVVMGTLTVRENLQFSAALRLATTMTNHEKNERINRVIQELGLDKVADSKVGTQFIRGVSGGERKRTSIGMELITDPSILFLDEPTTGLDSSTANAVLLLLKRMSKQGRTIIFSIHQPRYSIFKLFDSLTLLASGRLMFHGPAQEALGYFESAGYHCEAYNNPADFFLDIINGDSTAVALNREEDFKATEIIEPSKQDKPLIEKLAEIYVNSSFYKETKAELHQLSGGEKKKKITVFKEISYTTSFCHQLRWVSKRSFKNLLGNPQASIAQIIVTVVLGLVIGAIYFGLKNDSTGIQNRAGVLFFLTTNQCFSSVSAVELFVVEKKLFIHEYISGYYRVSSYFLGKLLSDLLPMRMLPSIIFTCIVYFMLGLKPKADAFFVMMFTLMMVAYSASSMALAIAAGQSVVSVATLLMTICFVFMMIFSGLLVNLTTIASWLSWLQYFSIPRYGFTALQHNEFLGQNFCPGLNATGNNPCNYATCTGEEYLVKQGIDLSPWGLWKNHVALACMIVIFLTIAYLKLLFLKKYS
# Protocol: Methods: For constructing MDCK-II cells expressing human ABCG2 or green fluorescent protein (GFP), MDCK-II cells were infected with recombinant adenoviruses containing human ABCG2 or GFP cDNA at 48 h prior to the experiments. ABCG2 or GFP-transduced cells were preincubated in prewarmed transport buffer for 15 min. Subsequently, [^3H]-mitoxantrone (MTX) was added in transport buffer to apical compartments. Accumulation of radiolabeled substrates was allowed for 2 h at 37° C. with or without an appropriate concentration of pharmaceutical excipients, 20 μM of GF120918 or 5 μM of PSC833. The reactions were arrested by washing cells with ice-cold transport buffer. Cells were solubilized and then the lysates were transferred to a liquid scintillation counter for measurement of radioactivity.
# To abolish the influence of endogenous P-gp, PSC833 (P-gp inhibitor) was added during the incubation for 2 h, except that in the samples treated with GF120918 (a shared ABCG2 and P-gp inhibitor) no PSC833 was added.
# The inhibitory effect of excipients on ABCG2 was further characterized in an intracellular accumulation study. MDCK-II cells overexpressing ABCG2 (BCRP MDCK-II) and, as controls, MDCK-II cells overexpressing green fluorescence protein (GFP) (GFP MDCK-II) were prepared. Mitoxantrone was used as the substrate. Intracellular mitoxantrone accumulation in the presence or absence of excipients was determined.
# To discover the excipients that can inhibit ABCG2, we performed an intracellular accumulation study using BCRP MDCK-II and GFP MDCK-II cells in the absence or presence of excipients. Mitoxantrone was used as the substrate. To abolish the effect of endogenous P-gp, this experiment was performed in the presence of PSC833. […] All of the excipients were used below their cmc, because above their cmc, excipients form micelles that can interact with the substrate, and as a consequence the effective concentration of mitoxantrone in the experimental medium can decrease.
# [2] = critical micelle concentration by surface tension in a transport buffer; assay type: physicochemical
# Text: The critical micelle concentration can be measured by a surface tension method,-e.g. using a Tensiometer, or other methods known in the art. Any suitable method known in the art can be used to measure the cmc. In a particular embodiment ASTM D 971 REV A is used.
# Therefore, we determined the cmc of the 11 excipients used above, and others, by measuring surface tension in a transport buffer. […] The concentration beyond which there was no further change in surface tension was taken as the cmc.
# ABCG2 [3] = biological target: T1, ABCG2
# Protocol: (§6) Measurement of the uptake of [^3H]-estrone-3-sulfate (E1S) was carried out for 11 pharmaceutical excipients at or near their reported critical micelle concentrations using ABCG2-expressing membrane vesicles.
# (§7) Eleven of the pharmaceutical excipients of Table 2 were examined for effect on ABCG2 function at their cmc. The inhibitory mechanism of ABCG2 inhibition by pharmaceutical excipients was also investigated. […] The uptake of E1S into these membrane vesicles was examined in the presence and absence of the first eleven excipients of Table 2.
# (§8) The IC50 values for these excipients, and their mode of inhibitory action for the function of ABCG2 were evaluated and determined.
# (§9) Km and Vmax were calculated for ABCG2 inhibition by excipients at a concentration near the IC50 values. Then, their values were compared to those obtained in the absence of excipient. […] Results are the means±SE (n=3).
# [4] = reported in literature; cited from earlier work
# P-gp = P-gp (Homo sapiens, UniProt P08183); assay: mitoxantrone accumulation in P-gp MDCK-II cells
# P-gp, sequence (P08183 whole entry): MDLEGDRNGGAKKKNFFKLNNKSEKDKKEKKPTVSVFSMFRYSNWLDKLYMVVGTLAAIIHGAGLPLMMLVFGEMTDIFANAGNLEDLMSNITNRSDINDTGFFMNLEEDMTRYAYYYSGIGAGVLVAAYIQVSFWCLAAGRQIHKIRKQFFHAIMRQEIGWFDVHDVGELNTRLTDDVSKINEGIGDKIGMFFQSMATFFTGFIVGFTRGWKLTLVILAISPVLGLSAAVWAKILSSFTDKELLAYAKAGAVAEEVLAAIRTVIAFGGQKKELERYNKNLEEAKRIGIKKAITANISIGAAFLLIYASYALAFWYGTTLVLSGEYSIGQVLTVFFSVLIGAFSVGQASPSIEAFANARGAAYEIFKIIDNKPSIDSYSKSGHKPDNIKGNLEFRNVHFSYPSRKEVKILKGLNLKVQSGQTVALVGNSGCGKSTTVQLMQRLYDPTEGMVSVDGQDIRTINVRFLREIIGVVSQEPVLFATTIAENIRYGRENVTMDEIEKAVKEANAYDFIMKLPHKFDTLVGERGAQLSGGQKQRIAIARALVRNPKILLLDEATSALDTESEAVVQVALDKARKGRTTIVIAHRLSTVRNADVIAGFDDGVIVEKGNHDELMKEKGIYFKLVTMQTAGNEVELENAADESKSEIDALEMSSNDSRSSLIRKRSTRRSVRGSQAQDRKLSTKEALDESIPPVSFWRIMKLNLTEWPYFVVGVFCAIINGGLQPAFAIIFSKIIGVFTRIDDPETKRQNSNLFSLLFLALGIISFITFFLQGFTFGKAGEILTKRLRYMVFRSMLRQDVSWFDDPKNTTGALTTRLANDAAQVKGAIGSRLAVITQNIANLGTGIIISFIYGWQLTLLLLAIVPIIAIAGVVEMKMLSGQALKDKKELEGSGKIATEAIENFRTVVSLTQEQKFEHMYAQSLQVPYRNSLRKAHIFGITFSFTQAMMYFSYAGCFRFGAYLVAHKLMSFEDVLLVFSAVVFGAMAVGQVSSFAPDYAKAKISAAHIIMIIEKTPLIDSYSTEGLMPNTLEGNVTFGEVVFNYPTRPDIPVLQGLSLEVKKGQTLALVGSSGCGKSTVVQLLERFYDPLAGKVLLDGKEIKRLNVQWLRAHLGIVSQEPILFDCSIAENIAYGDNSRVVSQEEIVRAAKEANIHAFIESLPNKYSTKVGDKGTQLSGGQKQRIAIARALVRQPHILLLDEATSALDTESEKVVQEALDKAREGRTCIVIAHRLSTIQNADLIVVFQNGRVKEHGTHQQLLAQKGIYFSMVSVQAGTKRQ
# Text: Moreover, to investigate the inhibitory effect of excipients on P-gp, we also performed an intracellular accumulation study for 15 excipients using P-gp MDCK-II cells. Mitoxantrone was again used as the substrate.
# ABCG2 [5] = biological target: T1, ABCG2; assay: [3H]-estrone-3-sulfate (E1S) uptake into ABCG2-expressing membrane vesicles from HEK293 cells
# Protocol: as §6, §7, §8, §9
# [6] = mouse, in vivo
# Protocol: (§1) Topotecan (1 mg/kg) was administered orally to wild-type and female bcrp1 KO mice. We then determined the plasma concentration of topotecan as a function of time (FIG. 9).
# (§2) We then determined the plasma concentration of topotecan as a function of time.
# (§3) Topotecan was also administered intravenously, for comparison. […] We then determined the plasma concentration of topotecan as a function of time.
# (§4) The dose of topotecan was 1000 μg/kg of body weight.
# (§5) The product of Fa and Fg is presystemic bioavailability for drugs not further metabolized in the liver. […] We determined Fa*Fg using Eh=CLTOT,BLOOD/Qh where Qh is 5.4 (L/h/kg). The fold change relative to wild type control is also presented.
# [7] = mouse, in vivo; remark: listed apart in the source
# Protocol: as §1, §2, §3, §4, §5
# [8] = ratio of topotecan concentration in blood to plasma; details: mouse, blood and plasma; mice; read-out: RB, ratio of topotecan concentration in blood to plasma
# GFP/MDCK II cells = assay: intracellular ATP level, luciferin/luciferase assay, GFP/MDCK II cells; assay type: cell-based; details: sodium azide 100 mM; P85 copolymer 20 μM; polysorbate 20 250 μM; polyoxyl 35 castor oil 50 μM; sorbitan monolaurate 100 μM; lauryl PEG ether 100 μM; n=3
molecule,measurement,setting,value
COc1cc2c(cc1OC)CN(CCc1ccc(NC(=O)c3cccc4c(=O)c5cccc(OC)c5[nH]c34)cc1)CC2 [GF120918],accumulation of MTX in GFP-transduced cells (in words),"GFP MDCK-II cells; Example 1, 20 μM GF120918, 2 h",no consistent effect
same,"initial accumulation of mitoxantrone, BCRP versus GFP MDCK-II cells",ABCG2 [1],no significant difference
same,accumulation of MTX in ABCG2-transduced cells compared to control,"ABCG2 [1]; human, 2 h, 20 μM",1.4 times
"CCCCCCCCCCCCO[C@@H]1O[C@H](CO)[C@@H](O[C@H]2O[C@H](CO)[C@@H](O)[C@H](O)[C@H]2O)[C@H](O)[C@H]1O [LM, n-dodecyl-β-D-maltopyranoside]",Measured cmc,[2],688 µM
same,effect on ABCG2-mediated E1S uptake into vesicles (in words),ABCG2 [3],less or no effect
same,Reference cmc,[4],170 µM
C/C=C/C[C@@H](C)C(=O)[C@H]1C(=O)N[C@@H](C(C)C)C(=O)N(C)CC(=O)N(C)[C@@H](CC(C)C)C(=O)N[C@@H](C(C)C)C(=O)N(C)[C@@H](CC(C)C)C(=O)N[C@@H](C)C(=O)N[C@H](C)C(=O)N(C)[C@@H](CC(C)C)C(=O)N(C)[C@@H](CC(C)C)C(=O)N(C)[C@@H](C(C)C)C(=O)N1C [PSC833],mitoxantrone accumulation in GFP MDCK-II cells (in words),"GFP MDCK-II cells; Example 7, P-gp study, endogenous P-gp",reversed
same,initial accumulation of mitoxantrone in GFP MDCK-II cells,GFP MDCK-II cells; initial time course,slightly increased
same,mitoxantrone accumulation in P-gp MDCK-II,P-gp; 1 hr (printed 'I hr'),markedly increased
same,mitoxantrone accumulation in P-gp MDCK-II cells (in words),P-gp; Example 7,markedly reversed
same,initial accumulation of mitoxantrone in P-gp MDCK-II cells,P-gp; initial 5 min,significantly increased
"CCCCCCCCCCCCOCCOCCOCCOCCO [Polyoxyl 4 lauryl ether, Lauryl polyethylene glycol ether]",IC50,ABCG2 [5],77.5 ± 4.1 µM
CC[C@@]1(O)C(=O)OCc2c1cc1n(c2=O)Cc2cc3c(CN(C)C)c(O)ccc3nc2-1 [topotecan],Eh of topotecan,[6],0.37
same,F of topotecan,[6],0.12
same,Fa × Fg of topotecan,[6],0.19
same,Fh of topotecan,[6],0.63
same,"CLtot,plasma of topotecan","[6]; po, 1000 ug/kg",333 mL/min/kg
same,Eh of topotecan,[7],0.22
same,F of topotecan,[7],0.27
same,Fa × Fg of topotecan,[7],0.35
same,Fh of topotecan,[7],0.78
same,Fold Change of Fa × Fg relative to wild type control,[7],1.8
same,"CLtot,plasma of topotecan","[7]; po, 1000 ug/kg",86.7 mL/min/kg
same,blood plasma ratio,[8],1.2
Polyoxyethyleneglyceroltrihydroxystearate [Polyoxyl 40 hydrogenated castor oil],mitoxantrone accumulation in P-gp MDCK-II cells (in words),P-gp,increased
Polyoxyethyleneglyceroltriricinoleate 35 [Polyoxyl 35 castor oil],mitoxantrone accumulation in P-gp MDCK-II cells (in words),P-gp,increased
Polyoxyethylenesorbitan monolaurate,mitoxantrone accumulation in P-gp MDCK-II cells (in words),P-gp,increased
Polyoxyethylenesorbitan monooleate,mitoxantrone accumulation in P-gp MDCK-II cells (in words),P-gp,increased
same,inhibition of ABCG2 in the intact cell assay,ABCG2 [1],did not inhibit ABCG2
Sorbitan monolaurate,"intracellular ATP, GFP/MDCK II",GFP/MDCK II cells,132.8 ± 3.6 nmol/mg protein
same,mitoxantrone accumulation in P-gp MDCK-II cells (in words),P-gp; Example 7,increased
same,Reference cmc,[4],100 µM
same,mitoxantrone accumulation in BCRP MDCK-II cells (in words),"ABCG2 [1]; Example 7, excipients below their cmc, in the presence of PSC833",significantly increased
Sorbitan monooleate,Reference cmc,[4],100 µM
Sorbitan monopalmitate,Reference cmc,[4],200 µM

# From patent US20070053869A1, “Formulation and method for enhancement of gastrointestinal absorption of pharmaceutical agents” (priority 2005, published 2007)
